Measurements reported in ChEMBL document CHEMBL1137017, “In vitro antiviral activity and cross-resistance profile of PL-100, a novel protease inhibitor of human immunodeficiency virus type 1” (Antimicrob Agents Chemother, 2007).

Experiments:
[1] = system: Human immunodeficiency virus 1; test: Resistance index, ratio of EC50 for HIV1 with protease 46I/50L/54V/82A mutation to EC50 for wild type HIV1 NL4-3 in HEK293 cells after 48 hrs by replication-deffective luciferase reporter gene-based phenotypic assay; type: functional
[2] = system: Human immunodeficiency virus 1; test: Resistance index, ratio of EC50 for HIV1 with protease 33I/46I/84V/90M mutation to EC50 for wild type HIV1 NL4-3 in HEK293 cells after 48 hrs by replication-deffective luciferase reporter gene-based phenotypic assay; type: functional
[3] = system: Human immunodeficiency virus 1; test: Resistance index, ratio of EC50 for HIV1 with protease 37T/41K/70E mutation to EC50 for wild type HIV1 NL4-3 in HEK293 cells after 48 hrs by replication-deffective luciferase reporter gene-based phenotypic assay; type: functional
[4] = system: Human immunodeficiency virus 1; test: Resistance index, ratio of EC50 for HIV1 with protease 46I/53L/82T/90M mutation to EC50 for wild type HIV1 NL4-3 in HEK293 cells after 48 hrs by replication-deffective luciferase reporter gene-based phenotypic assay; type: functional
[5] = system: Human immunodeficiency virus 1; test: Resistance index, ratio of EC50 for HIV1 with protease 46I/50V/54V mutation to EC50 for wild type HIV1 NL4-3 in HEK293 cells after 48 hrs by replication-deffective luciferase reporter gene-based phenotypic assay; type: functional
[6] = system: Human immunodeficiency virus 1; test: Resistance index, ratio of EC50 for HIV1 with protease 46I/50V/90M mutation to EC50 for wild type HIV1 NL4-3 in HEK293 cells after 48 hrs by replication-deffective luciferase reporter gene-based phenotypic assay; type: functional
Protease = Protease (Human immunodeficiency virus 1, UniProt Q9YQ12); test: Inhibition of HIV1 protease
Sequence of Protease (Q9YQ12 whole entry): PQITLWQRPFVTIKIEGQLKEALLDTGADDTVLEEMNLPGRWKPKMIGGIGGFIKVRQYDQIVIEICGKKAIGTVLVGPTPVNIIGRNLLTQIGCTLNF

[7] = system: Human immunodeficiency virus 1; test: Resistance index, ratio of EC50 for HIV1 with protease 54V/82A/84V/90M mutation to EC50 for wild type HIV1 NL4-3 in HEK293 cells after 48 hrs by replication-deffective luciferase reporter gene-based phenotypic assay; type: functional
[8] = system: Human immunodeficiency virus 1; test: Resistance index, ratio of EC50 for HIV1 with protease 46I/82T/84V/90M mutation to EC50 for wild type HIV1 NL4-3 in HEK293 cells after 48 hrs by replication-deffective luciferase reporter gene-based phenotypic assay; type: functional
[9] = system: Human immunodeficiency virus 1; test: Resistance index, ratio of EC50 for HIV1 with protease 33I/46I/84V/88D/90M mutation to EC50 for wild type HIV1 NL4-3 in HEK293 cells after 48 hrs by replication-deffective luciferase reporter gene-based phenotypic assay; type: functional
[10] = system: Human immunodeficiency virus 1; test: Resistance index, ratio of EC50 for HIV1 with protease 48V/54V/82A/90M mutation to EC50 for wild type HIV1 NL4-3 in HEK293 cells after 48 hrs by replication-deffective luciferase reporter gene-based phenotypic assay; type: functional
[11] = system: Human immunodeficiency virus 1; test: Resistance index, ratio of EC50 for non-B type HIV1 with protease 32I/47A mutation to EC50 for wild type HIV1 NL4-3 in HEK293 cells after 48 hrs by replication-deffective luciferase reporter gene-based phenotypic assay; type: functional
[12] = system: Human immunodeficiency virus 1; test: Resistance index, ratio of EC50 for HIV1 with protease 46I/88S mutation to EC50 for wild type HIV1 NL4-3 in HEK293 cells after 48 hrs by replication-deffective luciferase reporter gene-based phenotypic assay; type: functional
[13] = system: Human immunodeficiency virus 1; test: Resistance index, ratio of EC50 for HIV1 with protease 33F/54L/88S/90M mutation to EC50 for wild type HIV1 NL4-3 in HEK293 cells after 48 hrs by replication-deffective luciferase reporter gene-based phenotypic assay; type: functional
[14] = system: Human immunodeficiency virus 1; test: Resistance index, ratio of EC50 for HIV1 with protease 30N/33F/46L/54L/84V/88D mutation to EC50 for wild type HIV1 NL4-3 in HEK293 cells after 48 hrs by replication-deffective luciferase reporter gene-based phenotypic assay; type: functional
[15] = system: Human immunodeficiency virus 1; test: Resistance index, ratio of EC50 for HIV1 with protease 33F/54V/73S/82A/90M mutation to EC50 for wild type HIV1 NL4-3 in HEK293 cells after 48 hrs by replication-deffective luciferase reporter gene-based phenotypic assay; type: functional
[16] = system: Human immunodeficiency virus 1; test: Resistance index, ratio of EC50 for HIV1 with protease 33F/54L/82A/84V mutation to EC50 for wild type HIV1 NL4-3 in HEK293 cells after 48 hrs by replication-deffective luciferase reporter gene-based phenotypic assay; type: functional
[17] = system: Human immunodeficiency virus 1; test: Resistance index, ratio of EC50 for HIV1 with protease 33F/54V/82A/84V mutation to EC50 for wild type HIV1 NL4-3 in HEK293 cells after 48 hrs by replication-deffective luciferase reporter gene-based phenotypic assay; type: functional
[18] = system: Human immunodeficiency virus 1; test: Resistance index, ratio of EC50 for HIV1 with protease 33F/46I/53L/82A/84V mutation to EC50 for wild type HIV1 NL4-3 in HEK293 cells after 48 hrs by replication-deffective luciferase reporter gene-based phenotypic assay; type: functional
[19] = system: Human immunodeficiency virus 1; test: Resistance index, ratio of EC50 for HIV1 with protease 33F/54V/82T/84V/90M mutation to EC50 for wild type HIV1 NL4-3 in HEK293 cells after 48 hrs by replication-deffective luciferase reporter gene-based phenotypic assay; type: functional
[20] = system: Human immunodeficiency virus 1; test: Resistance index, ratio of EC50 for HIV1 with protease 33F/46L/53L/54V/82A mutation to EC50 for wild type HIV1 NL4-3 in HEK293 cells after 48 hrs by replication-deffective luciferase reporter gene-based phenotypic assay; type: functional
[21] = system: Human immunodeficiency virus 1; test: Resistance index, ratio of EC50 for HIV1 with protease 46L/54V/82A/90M mutation to EC50 for wild type HIV1 NL4-3 in HEK293 cells after 48 hrs by replication-deffective luciferase reporter gene-based phenotypic assay; type: functional
[22] = system: Human immunodeficiency virus 1; test: Resistance index, ratio of EC50 for HIV1 with protease 46I/54V/82A/84V mutation to EC50 for wild type HIV1 NL4-3 in HEK293 cells after 48 hrs by replication-deffective luciferase reporter gene-based phenotypic assay; type: functional
[23] = system: Human immunodeficiency virus 1; test: Resistance index, ratio of EC50 for HIV1 with protease 33F/54V/82A/84V/90M mutation to EC50 for wild type HIV1 NL4-3 in HEK293 cells after 48 hrs by replication-deffective luciferase reporter gene-based phenotypic assay; type: functional
[24] = system: Human immunodeficiency virus 1; test: Resistance index, ratio of EC50 for HIV1 with protease 46L/48V/82A/84V/90M mutation to EC50 for wild type HIV1 NL4-3 in HEK293 cells after 48 hrs by replication-deffective luciferase reporter gene-based phenotypic assay; type: functional
[25] = system: Human immunodeficiency virus 1; test: Resistance index, ratio of EC50 for HIV1 with protease 48V/82A/84V/90M mutation to EC50 for wild type HIV1 NL4-3 in HEK293 cells after 48 hrs by replication-deffective luciferase reporter gene-based phenotypic assay; type: functional
[26] = system: Human immunodeficiency virus 1; test: Resistance index, ratio of EC50 for HIV1 with protease 46L/48V/82A/90M mutation to EC50 for wild type HIV1 NL4-3 in HEK293 cells after 48 hrs by replication-deffective luciferase reporter gene-based phenotypic assay; type: functional
[27] = system: Human immunodeficiency virus 1; test: Resistance index, ratio of EC50 for HIV1 with protease 46L/50L/54V/82A mutation to EC50 for wild type HIV1 NL4-3 in HEK293 cells after 48 hrs by replication-deffective luciferase reporter gene-based phenotypic assay; type: functional

Compound | Ratio EC50 [1] | Ratio EC50 [2] | Ratio EC50 [3] | Ratio EC50 [4] | Ratio EC50 [5] | Ratio EC50 [6] | Ki (Protease) | Ratio EC50 [7] | Ratio EC50 [8] | Ratio EC50 [9] | Ratio EC50 [10] | Ratio EC50 [11] | Ratio EC50 [12] | Ratio EC50 [13] | Ratio EC50 [14] | Ratio EC50 [15] | Ratio EC50 [16] | Ratio EC50 [17] | Ratio EC50 [18] | Ratio EC50 [19] | other results
COC(=O)N[C@H](C(=O)NCCCC[C@@H](CO)N(CC(C)C)S(=O)(=O)c1ccc(N)cc1)C(c1ccccc1)c1ccccc1 [PPL-100] | 4 | 3.4 | 1.9 | 8.3 | 0.5 | 1.4 | 0.036 nM | 7 | 4.8 | 6.3 | 1.1 | 1.4 | 0.4 | 1.7 | 23.2 | 5.3 | 31.2 | 3.4 | 17.8 | 3.4 | Ratio EC50 [20]: 5.5; Ratio EC50 [21]: 3.2; Ratio EC50 [22]: 3.7; Ratio EC50 [23]: 9.6; Ratio EC50 [24]: 13.4; Ratio EC50 [25]: 13.5; Ratio EC50 [26]: 7.5; Ratio EC50 [27]: 3.2
Cc1c(O)cccc1C(=O)N[C@@H](CSc1ccccc1)[C@H](O)CN1C[C@H]2CCCC[C@H]2C[C@H]1C(=O)NC(C)(C)C | 14 | 28.5 | 1.9 | 32.9 | 12.7 | 19.4 | 0.306 nM | 33.1 | 27.1 | 27.9 | 25.4 | 3.1 | 4.6 | 14.5 | 400 | 20 | 17.2 | 5.8 | 11.1 | 14.9 | Ratio EC50 [20]: 28.3; Ratio EC50 [21]: 14.1; Ratio EC50 [22]: 8.8; Ratio EC50 [23]: 21.1; Ratio EC50 [24]: 43.6; Ratio EC50 [25]: 27.3; Ratio EC50 [26]: 30.8; Ratio EC50 [27]: 11.8
COC(=O)N[C@H](C(=O)N[C@@H](Cc1ccccc1)[C@@H](O)CN(Cc1ccc(-c2ccccn2)cc1)NC(=O)[C@@H](NC(=O)OC)C(C)(C)C)C(C)(C)C [ATAZANAVIR] | 67.5 | 7.5 | 1.5 | 33.7 | 2.4 | 1.2 | 0.039 nM | 50.5 | 32 | 38 | 28 | 1 | 3.1 | 18.9 | 66.1 | 11.9 | 44.5 | 5.5 | 18.3 | 14.1 | Ratio EC50 [20]: 22.7; Ratio EC50 [21]: 11.8; Ratio EC50 [22]: 5.8; Ratio EC50 [23]: 24.7; Ratio EC50 [24]: 91.6; Ratio EC50 [25]: 57.7; Ratio EC50 [26]: 35.4; Ratio EC50 [27]: 68.9
